From publication PMC3929664, “A Panel of Diverse Assays to Interrogate the Interaction between Glucokinase and Glucokinase Regulatory Protein, Two Vital Proteins in Human Disease” (PLoS ONE, 2014)
Where a name gives a salt, the structure may show the parent alone.

Molecular target: T1, GCK-GKRP interaction (recombinant human GST-GCK and FLAG-GKRP) (Homo sapiens, UniProt P35557+Q14397)
T1 construct: made in house
T1 sequence (P35557 1-465): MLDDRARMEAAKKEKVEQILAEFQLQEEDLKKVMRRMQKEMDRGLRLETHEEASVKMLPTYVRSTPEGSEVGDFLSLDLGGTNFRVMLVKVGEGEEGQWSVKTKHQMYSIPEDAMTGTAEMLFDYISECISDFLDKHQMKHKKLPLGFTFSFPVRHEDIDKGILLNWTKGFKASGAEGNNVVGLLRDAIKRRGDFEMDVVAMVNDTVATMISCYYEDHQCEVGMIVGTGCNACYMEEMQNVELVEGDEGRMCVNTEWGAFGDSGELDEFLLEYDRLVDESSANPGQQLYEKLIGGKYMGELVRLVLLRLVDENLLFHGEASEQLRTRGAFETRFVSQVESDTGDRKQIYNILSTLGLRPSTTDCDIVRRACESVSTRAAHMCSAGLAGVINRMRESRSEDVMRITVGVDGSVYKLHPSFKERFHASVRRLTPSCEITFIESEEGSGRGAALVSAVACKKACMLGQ
T1 sequence (Q14397 1-625): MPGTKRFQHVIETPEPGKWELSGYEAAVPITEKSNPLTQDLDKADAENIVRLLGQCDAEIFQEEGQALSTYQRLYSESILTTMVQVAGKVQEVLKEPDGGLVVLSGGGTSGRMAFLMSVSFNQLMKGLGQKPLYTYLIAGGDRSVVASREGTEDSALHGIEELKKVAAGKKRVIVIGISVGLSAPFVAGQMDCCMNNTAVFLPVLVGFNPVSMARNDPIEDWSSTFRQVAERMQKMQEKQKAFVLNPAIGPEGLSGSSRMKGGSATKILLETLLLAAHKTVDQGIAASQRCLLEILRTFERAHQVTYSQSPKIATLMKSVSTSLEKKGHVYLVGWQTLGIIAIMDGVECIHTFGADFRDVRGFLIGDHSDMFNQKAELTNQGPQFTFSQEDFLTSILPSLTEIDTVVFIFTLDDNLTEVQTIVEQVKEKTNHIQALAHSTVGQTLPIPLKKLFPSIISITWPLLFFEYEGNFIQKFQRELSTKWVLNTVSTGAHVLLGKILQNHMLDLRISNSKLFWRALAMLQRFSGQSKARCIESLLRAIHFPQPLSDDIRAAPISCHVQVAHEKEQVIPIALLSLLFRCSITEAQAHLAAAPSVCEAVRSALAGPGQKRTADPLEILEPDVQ
Test: HTRF assay of the GCK-GKRP protein-protein interaction
Format: binding
Settings: 5 nM GCK, 5 nM GKRP
Protocol: Homogeneous time-resolved fluorescence (HTRF) technology (Cisbio Bioassays, Bedford, MA, USA) was utilized for antibody-based FRET measurement of the GCK-GKRP protein-protein interaction. Recombinant human GST-GCK and FLAG-GKRP were mixed in an HTRF assay buffer containing 2 mM MgCl2, 25 mM KCl, 25 mM HEPES, 1 mM DTT, 0.1% Tween-20, and 0.025% BSA (all buffer components Sigma-Aldrich). The pH was adjusted to 7.1 by drop-wise addition of 10 N NaOH. […] For assays in 1536-well plate format, the two reaction mixes were dispensed using an Aurora Discovery BioRAPTR Flying Reagent Dispenser (BioRAPTR; Beckman Coulter, Inc., Brea, CA, USA) (3 µl/well for protein-containing buffer; 1 µl/well for detection antibodies) into white 1536-well solid-bottom medium binding plates (Greiner Bio-One, Monroe, NC, USA). […] For the LOPAC^1280 library screen, column 1 was all components with DMSO (maximum signal) and column 3 was no GKRP with DMSO (minimum signal). These two control columns were used for data normalization. The final HTS protocol is in Table S1, and the data have been deposited in PubChem (AID 743207).
S6P, F1P, and glucose were dissolved in water; GKAs were dissolved in DMSO.
The assay was validated using a range (0–150 nM) of GCK and GKRP concentrations at manufacturer-recommended detection antibody concentrations ( Figure 2A ). Fluorescence was measured immediately upon mixing, and every 30 minutes thereafter for a total of 240 minutes. The plate was covered and incubated at room temperature throughout the course of the experiment.
The assay was miniaturized to 1536-well plate format and, concurrently, specificity of detection was validated by using known modulators of the GCK-GKRP interaction.
The EC80 value represents a compromise between the desire for large enough signal enhancement and the need to maintain a binding level that is not too saturated so that it can be outcompeted by compounds of interest. Additionally, this approach enables detection of specific competitors of S6P, which would likely be acting on GKRP as desired, and not on GCK. […] Both glucose and GKAs interfere with the binding of GKRP to GCK and decrease GKRP inhibition, [44], [45], while F1P binds to GKRP and is competitive with respect to S6P [46].

O=C(O)C1=CC(=C(c2ccc(O)c(C(=O)O)c2)c2ccc(O)c(C(=O)O)c2)C=CC1=O [ATA, aurintricarboxylic acid]
LOPAC1280 screen outcome (2 µM S6P): inhibitors of the GCK-GKRP interaction

O=C(COP(=O)(O)O)[C@@H](O)[C@H](O)[C@H](O)CO [F1P, fructose 1-phosphate]
IC50 (2 µM S6P, mean ± SD, read-out: IC50 (inhibition of GCK-GKRP interaction, HTRF signal)): 70000 ± 5400 nM

O=P(O)(O)OC[C@@H](O)[C@@H](O)[C@H](O)[C@@H](O)CO [S6P, sorbitol 6-phosphate]
EC80: 2000 nM | EC50 (1536-well, mean ± SD, read-out: EC50 (enhancement of HTRF signal)): 400 ± 80 nM

Cc1ccc(C(=O)Nc2ccc(S(=O)(=O)O)c3cc(S(=O)(=O)O)cc(S(=O)(=O)O)c23)cc1NC(=O)c1cccc(NC(=O)Nc2cccc(C(=O)Nc3cc(C(=O)Nc4ccc(S(=O)(=O)O)c5cc(S(=O)(=O)O)cc(S(=O)(=O)O)c45)ccc3C)c2)c1 [suramin sodium salt]
LOPAC1280 screen outcome (2 µM S6P): inhibitors of the GCK-GKRP interaction
